Tests used:
[1] = BTK FAC plasma stability assay, rat plasma; type: in vitro ADME; settings: incubation to 24 h
In short: (§1)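 Stability in PBS buffer or EDTA-treated plasma is followed over 24 h at 38 °C with shaking. Protein precipitation with acetonitrile (glyburide 0.2 µM as internal standard) stops each timepoint, and LC-MS/MS gives analyte-to-standard area ratios.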

[2] = BTK FAC plasma stability assay, mouse plasma; type: in vitro ADME; settings: incubation to 24 h
In short: as §1

[3] = system: TMD8 tumors; assay: Efficacy in ectopic (subcutaneous) TMD8 tumor-bearing SCID/BEIGE mice, tumor volume; type: in vivo, mouse; settings: 20 mgL/kg (unconjugated V)
Protocol: All animal experiments were performed according to procedures covered by permit number BS-1974, BS-1975 and BS-2904 issued by the Kantonales Veterinäramt Basel-Stadt and strictly adhered to the Eidgenössisches Tierschutzgesetz and the Eidgenössische Tierschutzverordnung. Female Sprague Dawley rat were obtained from Charles Rivers (Germany), female Balb/c mice from Charles Rivers (Italy) and female SCID/BEIGE (C.B-Igh-1b/GbmsTac-Prkdcscid-Lystbg N7) mice from Taconic. All the animals were housed in a pathogen-controlled environment with access to food and water ad libitum and they were identified with transponders.
Subcutaneous TMD8 tumors were induced by injecting tumor cells expanded in vitro in the right flank of SCID/BEIGE mice. As soon as the injection was finished, antagonization (naloxone, flumazenil and atipamezole injected s.c.) was injected and mice are put on a warming pad for recovery and carefully checked during that time.
For PK experiments, non-tumor bearing mice or rats were treated once (10 mL/kg) with a compound either i.v. or s.c. Serial blood samplings from the tail vein (5-20 μl) were collected during the course of the experiment. For PK/PD experiments in tumor-bearing mice, compound was administered once (10 mL/kg) either i.v. or s.c. Animals were randomized into groups of n=3 and tissue samples were collected at several time points. At the times indicated, animals were anaesthetized by exposure to 2-3% v/v isoflurane in medical oxygen. They were sacrificed without recovering from anesthetic after blood sampling into commercially prepared EDTA coated tubes (Milian, cat #TOM-14C) in order to extract plasma. The tissues were excised, weighted and rapidly frozen in liquid nitrogen. Later, tumors were cryogenic dry pulverized with the CryoPrep™ system (model CP-02, Covaris). For efficacy experiments in ectopic tumor-bearing mice, animals were randomized into groups of n=6 for a mean tumor size of 100 mm^3 and compound was administered either i.v. q3w or s.c. q2w. When implanted in brain, animals were randomized into groups of n=4 for a mean bioluminescence of 1.0-2.0E+06 [p/s]/[ρW/cm^2] and compound was administered i.v. qw. Tumor response were reported with the measures of tumor volumes or bioluminescence from the treatment start. Concentrations of compound in blood and tissues were determined simultaneously by UPLC/MS-MS. BTK and IL-10 levels in tumor were determined by Meso Scale Discovery (MSD).

## COc1ccc(C(=O)N2CCC3(CCN(CCc4ccc(-c5cc6c(-c7cc(F)cc(NC(=O)c8ccc(C(C)(C)O)cc8F)c7C)ncnc6[nH]5)cc4)CC3)CC2)cc1N1CCC(=O)NC1=O [Compound V, N-(3-(6-(4-(2-(9-(3-(2,4-Dioxotetrahydropyrimidin-1(2H)-yl)-4-methoxybenzoyl)-3,9-diazaspiro[5.5]undecan-3-yl)ethyl)phenyl)-7H-pyrrolo[2,3-d]pyrimidin-4-yl)-5-fluoro-2-methylphenyl)-2-fluoro-4-(2-hydroxypropan-2-yl)benzamide]
[1]
  Plasma stability (h) rat: 39.3 h
[2]
  Plasma stability (h) mouse: 27.1 h
[3]; i.v.
  Dosing frequency to achieve sustained 90% regression: 2qw (85%)
[3]; s.c.
  Dosing frequency to achieve sustained 90% regression: Not tolerated
